The source of these data is ChEMBL document CHEMBL1134266, “Design and pharmacology of quinuclidine derivatives as M2-selective muscarinic receptor ligands” (Bioorg Med Chem Lett, 2001).

Holding throughout (assay type): cell-based
Assay [1] concerns the target T1, Muscarinic acetylcholine receptor M2 (Homo sapiens, UniProt P08172).
T1 sequence (P08172 whole entry): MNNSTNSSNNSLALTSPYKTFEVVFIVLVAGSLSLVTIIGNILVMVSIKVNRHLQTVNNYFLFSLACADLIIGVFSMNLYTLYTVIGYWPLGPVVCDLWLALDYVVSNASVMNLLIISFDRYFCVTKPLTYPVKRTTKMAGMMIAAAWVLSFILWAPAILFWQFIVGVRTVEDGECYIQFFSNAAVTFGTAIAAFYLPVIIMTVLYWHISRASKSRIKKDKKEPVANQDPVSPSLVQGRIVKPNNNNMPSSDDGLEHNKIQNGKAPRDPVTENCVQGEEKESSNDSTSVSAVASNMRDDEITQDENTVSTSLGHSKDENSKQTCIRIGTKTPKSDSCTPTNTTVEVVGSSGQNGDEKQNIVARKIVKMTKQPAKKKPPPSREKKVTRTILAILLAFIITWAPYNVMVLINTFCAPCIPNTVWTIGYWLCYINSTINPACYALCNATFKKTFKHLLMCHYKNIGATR
Kind of assay: Affinity for Muscarinic acetylcholine receptor M2 expressed in CHO cells by [3H]NMS displacement.

In assay [2] the target is T2, Muscarinic acetylcholine receptor M5 (Homo sapiens, UniProt P08912).
T2 sequence (P08912 whole entry): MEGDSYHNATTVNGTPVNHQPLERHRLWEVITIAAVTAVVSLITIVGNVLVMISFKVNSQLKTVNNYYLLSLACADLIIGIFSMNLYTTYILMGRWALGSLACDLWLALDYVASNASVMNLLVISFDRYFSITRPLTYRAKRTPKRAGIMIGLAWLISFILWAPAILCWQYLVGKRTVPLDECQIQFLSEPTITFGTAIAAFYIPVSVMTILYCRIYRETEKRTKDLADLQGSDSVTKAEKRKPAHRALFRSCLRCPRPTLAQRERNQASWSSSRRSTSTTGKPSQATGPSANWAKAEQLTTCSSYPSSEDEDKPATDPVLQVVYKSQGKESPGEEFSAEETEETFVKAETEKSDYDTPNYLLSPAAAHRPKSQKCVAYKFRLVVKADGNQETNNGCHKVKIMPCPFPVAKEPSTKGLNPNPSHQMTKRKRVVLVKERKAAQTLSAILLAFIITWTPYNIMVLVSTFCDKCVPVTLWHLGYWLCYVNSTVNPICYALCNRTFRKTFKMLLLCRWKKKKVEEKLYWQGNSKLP
Nature of the assay: Affinity for Muscarinic acetylcholine receptor M5 expressed in CHO cells by [3H]NMS displacement.

Assay [3] has as its target T3, Muscarinic acetylcholine receptor M4 (Homo sapiens, UniProt P08173).
T3 sequence (P08173 whole entry): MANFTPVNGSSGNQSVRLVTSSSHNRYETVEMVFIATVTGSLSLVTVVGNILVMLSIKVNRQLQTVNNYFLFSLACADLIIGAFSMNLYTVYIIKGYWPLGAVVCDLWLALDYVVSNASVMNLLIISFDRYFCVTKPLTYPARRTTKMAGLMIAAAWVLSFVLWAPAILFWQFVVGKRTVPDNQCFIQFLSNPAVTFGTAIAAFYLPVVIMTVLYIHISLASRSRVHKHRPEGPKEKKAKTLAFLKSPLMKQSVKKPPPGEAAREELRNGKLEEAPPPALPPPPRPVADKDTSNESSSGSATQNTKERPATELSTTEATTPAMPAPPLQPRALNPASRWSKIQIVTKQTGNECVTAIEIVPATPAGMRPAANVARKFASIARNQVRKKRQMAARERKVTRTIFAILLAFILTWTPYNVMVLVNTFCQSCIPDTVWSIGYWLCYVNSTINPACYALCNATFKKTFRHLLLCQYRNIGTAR
Nature of the assay: Affinity for Muscarinic acetylcholine receptor M4 expressed in CHO cells by [3H]NMS displacement.

Assay [4] has as its target T4, Muscarinic acetylcholine receptor M1 (Homo sapiens, UniProt P11229).
T4 sequence (P11229 whole entry): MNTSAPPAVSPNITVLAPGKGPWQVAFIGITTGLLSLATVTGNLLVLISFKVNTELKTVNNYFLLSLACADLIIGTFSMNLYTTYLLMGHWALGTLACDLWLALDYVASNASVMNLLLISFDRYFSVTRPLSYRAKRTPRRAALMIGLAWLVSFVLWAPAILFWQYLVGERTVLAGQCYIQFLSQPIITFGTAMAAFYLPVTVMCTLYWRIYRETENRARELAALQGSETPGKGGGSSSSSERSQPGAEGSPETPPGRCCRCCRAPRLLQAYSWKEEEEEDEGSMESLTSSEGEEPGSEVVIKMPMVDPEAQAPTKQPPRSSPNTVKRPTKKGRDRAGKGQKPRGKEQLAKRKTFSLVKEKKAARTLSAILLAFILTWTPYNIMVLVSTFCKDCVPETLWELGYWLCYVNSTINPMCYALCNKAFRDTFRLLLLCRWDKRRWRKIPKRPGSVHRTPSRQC
Kind of assay: Affinity for Muscarinic acetylcholine receptor M1 expressed in CHO cells by [3H]NMS displacement.

Assay [5] has as its target Muscarinic acetylcholine receptor M3 (Homo sapiens, UniProt P20309). Nature of the assay: Affinity for Muscarinic acetylcholine receptor M3 expressed in CHO cells by [3H]-NMS displacement.

Chain of Muscarinic acetylcholine receptor M3 (P20309 whole entry): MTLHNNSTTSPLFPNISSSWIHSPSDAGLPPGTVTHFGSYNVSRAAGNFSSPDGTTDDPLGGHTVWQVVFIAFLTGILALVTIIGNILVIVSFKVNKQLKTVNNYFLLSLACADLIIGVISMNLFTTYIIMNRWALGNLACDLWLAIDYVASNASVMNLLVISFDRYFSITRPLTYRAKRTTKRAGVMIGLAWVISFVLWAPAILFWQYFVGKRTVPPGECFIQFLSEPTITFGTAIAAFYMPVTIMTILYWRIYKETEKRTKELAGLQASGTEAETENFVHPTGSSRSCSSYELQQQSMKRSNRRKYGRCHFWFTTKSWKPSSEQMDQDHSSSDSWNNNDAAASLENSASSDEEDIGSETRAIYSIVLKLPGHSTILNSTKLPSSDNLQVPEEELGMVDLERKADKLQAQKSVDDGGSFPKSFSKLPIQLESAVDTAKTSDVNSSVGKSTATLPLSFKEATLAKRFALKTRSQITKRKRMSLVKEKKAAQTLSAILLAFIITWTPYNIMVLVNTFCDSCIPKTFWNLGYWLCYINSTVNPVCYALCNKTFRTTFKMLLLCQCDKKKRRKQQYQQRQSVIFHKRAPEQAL

On to `CN(C)CCOC(=O)C1=C/C(=C\c2ccccn2)c2ccccc21`, for which the Ki in assay [1] is 12 µM; in assay [2], 17.8 µM; in assay [3], 12.3 µM; in assay [4], 7.08 µM; in assay [5], 14.1 µM.
The like results for `CN(C)CCN(C)C(=O)C1=C/C(=C\c2cccnc2)c2ccccc21` were, in that order, 14.1 µM, 53.7 µM, 55 µM, 49 µM and 72.4 µM.
With `CN(C)CCC1=C/C(=C\c2cccnc2)c2ccccc21`, the Ki in assay [1] was 15.1 µM; in assay [2], 26.9 µM; in assay [3] it was 22.4 µM; in assay [4], 18.6 µM; in assay [5], 27.5 µM.
On the same counts, the results for `CN(C)CCC1=C/C(=C\c2ccccn2)c2ccccc21` are 12.6 µM, 19.1 µM, 12 µM, 9.55 µM and 21.4 µM.
On the same counts, the results for `CN(C)CCNC(=O)C1=C/C(=C\c2ccccn2)c2ccccc21` are 41.7 µM, 55 µM, 33.9 µM, 26.9 µM and 61.7 µM.
On the same counts, the results for `CC(C1=C(CCN(C)C)Cc2ccccc21)c1ccccn1` (stereo not drawn) are 0.0447 µM, 0.794 µM, 0.407 µM, 0.263 µM and 0.191 µM.
Consider `CN(C)CCOC(=O)C1=C/C(=C\c2ccncc2)c2ccccc21`, for which the Ki is 10.5 µM in assay [1]; 26.9 µM in assay [2]; 14.8 µM in assay [3]; 12 µM in assay [4]; 15.1 µM in assay [5].
Turning to `CN(C)CCN(C)C(=O)C1=C/C(=C\c2ccccn2)c2ccccc21`, the Ki in assay [1] was 9.12 µM; in assay [2], 52.5 µM; in assay [3] it was 46.8 µM; in assay [4], 21.9 µM; in assay [5], 63.1 µM.
On the same counts, the results for `CN(C)CCNC(=O)C1=C/C(=C\c2cccnc2)c2ccccc21` are 29.5 µM, 66.1 µM, 21.4 µM, 28.2 µM and 40.7 µM.
`CN(C)CCOC(=O)C1=C/C(=C\c2cccnc2)c2ccccc21`: the Ki in assay [1] was 7.41 µM; in assay [2], 30.2 µM; in assay [3], 12.6 µM; in assay [4] it was 11.5 µM; in assay [5] it was 10 µM.
Regarding `CN(C)CCNC(=O)C1=C/C(=C\c2ccncc2)c2ccccc21`, the Ki in assay [1] is 15.8 µM; in assay [2], 53.7 µM; in assay [3] it was 24.5 µM; in assay [4], 24 µM; in assay [5], 45.7 µM.
On the same counts, the results for `CN1CCN(C(=O)C2=C/C(=C\c3ccncc3)c3ccccc32)CC1` are 38.9 µM, 55 µM, 89.1 µM, 29.5 µM and 97.7 µM.
In the case of `CC1OC(=O)[C@H]2C[C@H]3CCCC[C@@H]3[C@@H](/C=C/C3CCCC(C)N3C)[C@@H]12` (single isomer, unassigned) [HIMBACINE], the Ki in assay [1] was 0.01 µM; in assay [2] it was 0.49 µM; in assay [4] it was 0.107 µM.
